Values quoted from earlier work as cited in US20240041741A1, “COSMETIC COMPOSITION OBTAINED BY MIXING TWO SILANE BLENDS” (Henkel AG & Co. KGaA, priority 2020, published 2024).

Conditions: for solubility in water: 25° C.

solubility in water (in words) (at 25° C.)	Compound	solubility in water
–	O=S(=O)([O-])c1ccc(N=Nc2c(O)ccc3ccccc23)cc1.[Na+] [Acid Orange 7, sodium salt of 4-[(2-hydroxy-1-naphthyl)azo]benzene sulphonate]	more than 7 g/L
–	Nc1cc(S(=O)(=O)[O-])cc2cc(S(=O)(=O)[O-])c(N=Nc3ccccc3)c(O)c12.[Na+].[Na+] [Acid Red 33, diantrium salt of 5-amino-4-hydroxy-3-(phenylazo)-naphthalene-2,7-disulphonate]	2.5 mg/mL
–	mixture of the sodium salts of mono- and sisulfonic acids of 2-(2-quinolyl)-1H-indene-1,3(2H)-dione [Acid Yellow 3]	20 mg/mL
–	O=C([O-])c1c(Cl)c(Cl)c(Cl)c(Cl)c1-c1c2c(Br)cc(=O)c(Br)c-2oc2c(Br)c(O)cc(Br)c12.O=C([O-])c1c(Cl)c(Cl)c(Cl)c(Cl)c1-c1c2c(Br)cc(=O)c(Br)c-2oc2c(Br)c(O)cc(Br)c12.[Na+].[Na+] [Acid Red 92, disodium salt of 3,4,5,6-tetrachloro-2-(1,4,5,8-tetrabromo-6-hydroxy-3-oxoxanthen-9-yl)benzoic acid]	greater than 10 g/L
readily soluble in water	O=C([O-])C1=NN(c2ccc(S(=O)(=O)[O-])cc2)C(=O)C1N=Nc1ccc(S(=O)(=O)[O-])cc1.[Na+].[Na+].[Na+] (centres unmarked) [Acid Yellow 23, trisodium salt of 4,5-dihydro-5-oxo-1-(4-sulfophenyl)-4-((4-sulfophenyl)azo)-1H-pyrazole-3-carboxylic acid]	–
